# Experimental data from US5432270A, “DNA encoding tracheal antimicrobial peptides” (priority 1993, dated 1995).
# Assays:
# Assay in all cases: Minimal inhibitory concentration in 0.25x TSB, microtiter plates
# Format in all cases: cell-based
# [1] = system: Klebsiella pneumonia (ATCC 13883)
# Experimental: (§1) Antimicrobial activity of TAP (SEQ ID NO: 1) and
# (§2) Magainin 2-NH2 (SEQ ID NO: 6). Minimal inhibitory
# (§3) concentrations were determined by incubating approximately
# (§4) 3.125 μg/ml of the appropriate peptide.
# [2] = system: Candida albicans (ATCC 14053)
# Experimental: as §1, §2, §3, §4
# [3] = system: Staphylococcus aureus (ATCC 25923); conditions: 2.5 × 10^4 microbe in 0.25× TSB, overnight 37° C.
# Experimental: as §1, §2, §3, §4
# [4] = system: Pseudomonas aeruginosa (ATCC 27853); conditions: 2.5 × 10^4 microbe in 0.25× TSB, overnight 37° C.
# Experimental: as §1, §2, §3, §4
# [5] = system: Escherichia coli strain D31; conditions: E. coli
# Experimental: as §1, §2, §3, §4
# *strain D31 (Steiner, H. D., Hultmark, A., supra, (1981)
substance,measurement,setting,value
"TAP: 38-residue cysteine-rich antimicrobial peptide purified from bovine tracheal mucosa, SEQ ID NO:1 (NPVSCVRNKGICVPIRCPGSMKQIGTCVGRAVKCCRKK)",Antimicrobial activity in vitro (in words),[1]; K. pneumonia,most active
same,Minimal inhibitory concentration,"[1]; Klebsiella pneumonia ATCC 13883, 2.5 × 10^4 microbe in 0.25× TSB, overnight 37° C.",12.5 to 25 µg/mL
same,Antimicrobial activity in vitro (in words),[2]; C. albicans,significant antimicrobial activity
same,Minimal inhibitory concentration,"[2]; Candida albicans ATCC 14053, 2.5 × 10^4 microbe in 0.25× TSB, overnight 37° C.",6.25 to 12.5 µg/mL
same,Minimal inhibitory concentration,[3],25 to 50 µg/mL
same,Minimal inhibitory concentration,[4],25 to 50 µg/mL
same,Antimicrobial activity in vitro (in words),[5],most active
